In brackets after ≈: the same amount, converted by molar mass.
What was measured:
[1] = tested on: human skin; assay: Human Repeated Insult Patch Test, induction series (irritation); conditions: in vivo
Source text: The following protocol was followed in testing each compound.
Two-hundred subjects were employed in each investigation.

[2] = tested on: Pseudomonas aeruginosa; assay: in vitro agar plate determination (Table VII); format: cell-based; conditions: agar plates at 10, 25 and 50 mcg. per ml., 24 hours, read-out: Minimum Inhibitory Concentration
Protocol: (§1) The antimicrobial activities of […] (Compound G) were determined concurrently with 5-bromo-2-methyl-5-nitro-1,3-dioxane (Compound C) and 5-bromo-5-nitro-1,3-dioxane (Compound B) against the same six organisms shown in Table II. […] The tests were in vitro determinations utilizing agar plates containing the active compound at 10, 25 and 50 mcg. per ml. of agar. The organisms, at concentrations of 10^6 organisms per milliliter, were streaked on the solidified agar. The plates were incubated for 24 hours and the presence or absence of growth noted. The minimum inhibitory concentration (MIC) was determined as the lowest active compound concentration in the agar where no growth occurred.

[3] = tested on: Streptococcus faecalis; assay: in vitro agar plate determination (Table VII); format: cell-based; conditions: Enterococcus faecalis; agar plates at 10, 25 and 50 mcg. per ml., 24 hours; read-out: Minimum Inhibitory Concentration
Protocol: as §1

[4] = tested on: Candida albicans; assay: in vitro agar plate determination (Table VII); format: cell-based; conditions: agar plates at 10, 25 and 50 mcg. per ml., 24 hours, read-out: Minimum Inhibitory Concentration
Protocol: as §1

[5] = tested on: Staphylococcus aureus; assay: in vitro agar plate determination (Table VII); format: cell-based; conditions: agar plates at 10, 25 and 50 mcg. per ml., 24 hours, read-out: Minimum Inhibitory Concentration
Protocol: as §1

[6] = tested on: Escherichia coli; assay: in vitro agar plate determination (Table VII); format: cell-based; conditions: agar plates at 10, 25 and 50 mcg. per ml., 24 hours, read-out: Minimum Inhibitory Concentration
Protocol: as §1

[7] = tested on: Aspergillus niger; assay: in vitro agar plate determination (Table VII); format: cell-based; conditions: agar plates at 10, 25 and 50 mcg. per ml., 24 hours, read-out: Minimum Inhibitory Concentration
Protocol: as §1

[8] = tested on: Propionibacterium acnes; assay: conventional tube dilution test, anaerobic; format: cell-based; conditions: Cutibacterium acnes, medium pH 6.9, read-out: minimum inhibitory concentration
Protocol: For example, 5-bromo-2-methyl-5-nitro-1,3-dioxane (Compound C) was tested against Propionibacterium acnes (formerly called Corynebacterium acnes) in a conventional tube dilution test. A simultaneous test was run utilizing 2-bromo-2-nitropropane,1,3-diol (Compound A) and 5-bromo-5-nitro-1,3-dioxane (Compound B) as the antimicrobials.
The test against Propionibacterium acnes were run anaerobically in the following medium:
(§2) Distilled water q.s. -- 1000 ml
The pH of the medium was 6.9

[9] = tested on: Pseudomonas aeruginosa; assay: agar plate system (Table II); format: cell-based; conditions: antibiotic medium 1, 72 hours at 30° C., read-out: Minimum Inhibitory Concentration
Protocol: (§3) The antimicrobial activities of Compounds A, B, C, D, E and F were also determined in an agar plate system. The compounds were added to melted and cooled (50° C.) agar in twofold concentration increments from 50 mcg per ml of agar to 1.56 mcg per ml of agar. Antibiotic medium 1 [CFR 436.102(1)] was used for testing of Pseudomonas aeruginosa, Staphylococcus aureus, Escherichia coli, and Streptococcus faecalis, but antibiotic medium 22 [CFR 436.102(22)] was used for testing of Candida albicans and Aspergillus niger. Organism suspensions containing 10^6 organisms per ml were used as stock suspensions. Sterile cotton swabs were dipped in the suspensions and then streaked across the solidified agar. The figures shown in Table II were the lowest concentrations at which no growth occurred after 72 hours at 30° C. These values were interpreted as the minimum inhibitory concentration (MIC).

[10] = tested on: Streptococcus faecalis; assay: agar plate system (Table II); format: cell-based; conditions: Enterococcus faecalis, antibiotic medium 1, 72 hours at 30° C., read-out: Minimum Inhibitory Concentration
Protocol: as §3

[11] = tested on: Candida albicans; assay: agar plate system (Table II); format: cell-based; conditions: antibiotic medium 22, 72 hours at 30° C., read-out: Minimum Inhibitory Concentration
Protocol: as §3

[12] = tested on: Staphylococcus aureus; assay: agar plate system (Table II); format: cell-based; conditions: antibiotic medium 1, 72 hours at 30° C., read-out: Minimum Inhibitory Concentration
Protocol: as §3

[13] = tested on: Escherichia coli; assay: agar plate system (Table II); format: cell-based; conditions: antibiotic medium 1, 72 hours at 30° C., read-out: Minimum Inhibitory Concentration
Protocol: as §3

[14] = tested on: Aspergillus niger; assay: agar plate system (Table II); format: cell-based; conditions: antibiotic medium 22, 72 hours at 30° C., read-out: Minimum Inhibitory Concentration
Protocol: as §3

[15] = tested on: human skin; conditions: in vivo
Source text: Two-hundred subjects were employed in each investigation. The repeated insult technique was used in the patch test. A different group of subjects were utilized for each evaluation.
The technique used for the patch test called for a series of 9 induction patches of each test material to be placed on each of the subjects. The series was followed two weeks later by a single "challenge" patch of each test material to detect skin sensitization.
The series of nine induction patches was applied on Monday, Wednesday and Thursday and allowed to contact the skin for 24 hours, after which time they were removed and the skin sites graded for irritation. Thursday's patches were placed immediately after removal and grading of Wednesday's applications. After the ninth induction patches had been placed, a non-patching period of 2 weeks elapsed before the challenge patches were applied to detect sensitization reactions. For this 24-hour patch, a new skin site was used. This site was invariably chosen adjacent to an induction site; i.e., one where repeated applications had been made during the series of nine induction patches. The challenge applications were graded at 24 and 72 hours after application.
The skin applications for each material were made using oval-shaped adhesive patches (1" × 11/4") with circular gauze centers. The gauze centers were coated with approximately 0.03 ml. of the respective test material just prior to application.
The scoring criteria used for skin irritation reactions and in evaluating the sensitization evidenced on the challenge application follows:
Four separate formulations of each compound were tested along with two formulations of parabens.
A reading of 5 or more on the 8-point scale was deemed to be indicative of the development of skin sensitization to the test compound.

[16] = tested on: Pseudomonas aeruginosa; assay: conventional tube dilution test (Table I); format: cell-based; conditions: 48 h, antibiotic Number 3 medium, two days at 37° C., read-out: Minimum Inhibitory Concentration
Protocol: (§4) The in vitro antimicrobial activities of Compounds A, B and C, 5-bromo-2-ethyl-5-nitro-1,3-dioxane (Compound D), 5-bromo-5-nitro-2-n-propyl-1,3-dioxane (Compound E), and 5-bromo-2-isopropyl-5-nitro-1,3-dioxane (Compound F) were determined concurrently against Pseudomonas aeruginosa, Staphylococcus aureus, Escherichia coli, and Streptococcus faecalis in a conventional tube dilution test. The medium used was antibiotic Number 3 [CFR 436.102(3)] and the concentration of organisms was 10^4 organisms per ml of medium, with each tube being inoculated with 0.1 ml of inoculum. The figures shown in Table I are the lowest concentrations in mcg of active compound/ml of medium where no growth occurred in the medium after two days' incubation at 37° C.

[17] = tested on: Streptococcus faecalis; assay: conventional tube dilution test (Table I); format: cell-based; conditions: Enterococcus faecalis, 48 h, antibiotic Number 3 medium, two days at 37° C., read-out: Minimum Inhibitory Concentration
Protocol: as §4

[18] = tested on: Staphylococcus aureus; assay: conventional tube dilution test (Table I); format: cell-based; conditions: 48 h, antibiotic Number 3 medium, two days at 37° C., read-out: Minimum Inhibitory Concentration
Protocol: as §4

[19] = tested on: Escherichia coli; assay: conventional tube dilution test (Table I); format: cell-based; conditions: 48 h, antibiotic Number 3 medium, two days at 37° C., read-out: Minimum Inhibitory Concentration
Protocol: as §4

[20] = prior art; cited from earlier work
[21] = tested on: Microsporum gypseum; assay: In Vitro Antifungal Activity, agar plates (Table III); format: cell-based; conditions: Nannizzia gypsea, 72 h, three days at 25° C., pH 5.7, read-out: Minimum Inhibitory Concentration
Protocol: (§5) Compounds A, B, and C were tested further to determine antifungal activity. The compounds were added to melted and cooled (50° C.) agar to obtain concentrations of 100, 50, 25, 12.5, 6.25 and 0.0 mcg per ml of agar. After the agar solidified, sterile cotton swabs were dipped in stock suspensions of the organisms (10^6 organisms per ml of physiological saline) and then streaked across the agar. After three days' incubation at 25° C., concentrations which prevented growth were recorded as the minimal inhibitory concentration. The composition of the medium used in this study was as follows:
(§6) Calcium carbonate -- 0.5 g
(§7) V-8 juice filtrate -- 200.0 ml
as §2
(§8) The pH was adjusted to 5.7.

[22] = tested on: Saccharomyces pastorianus; assay: as above; format: cell-based; conditions: 72 h, three days at 25° C., pH 5.7, read-out: Minimum Inhibitory Concentration
Protocol: as §5, §6, §7, §2, §8

[23] = tested on: Chaetomium globosum; assay: as above; format: cell-based; conditions: 72 h, three days at 25° C., pH 5.7, read-out: Minimum Inhibitory Concentration
Protocol: as §5, §6, §7, §2, §8

[24] = tested on: Botrytis cinerea; assay: as above; format: cell-based; conditions: 72 h, three days at 25° C., pH 5.7, read-out: Minimum Inhibitory Concentration
Protocol: as §5, §6, §7, §2, §8

[25] = tested on: Colletotrichum phomoides; assay: as above; format: cell-based; conditions: 72 h, three days at 25° C., pH 5.7, read-out: Minimum Inhibitory Concentration
Protocol: as §5, §6, §7, §2, §8

[26] = tested on: Penicillium notatum; assay: as above; format: cell-based; conditions: Penicillium chrysogenum, 72 h, three days at 25° C., pH 5.7, read-out: Minimum Inhibitory Concentration
Protocol: as §5, §6, §7, §2, §8

[27] = tested on: Rhodotorula glutinis; assay: as above; format: cell-based; conditions: 72 h, three days at 25° C., pH 5.7, read-out: Minimum Inhibitory Concentration
Protocol: as §5, §6, §7, §2, §8

[28] = tested on: Fusarium oxysporum cubense; assay: as above; format: cell-based; conditions: 72 h, three days at 25° C., pH 5.7, read-out: Minimum Inhibitory Concentration
Protocol: as §5, §6, §7, §2, §8

[29] = tested on: Aspergillus fumigatus; assay: as above; format: cell-based; conditions: 72 h, three days at 25° C., pH 5.7, read-out: Minimum Inhibitory Concentration
Protocol: as §5, §6, §7, §2, §8

[30] = tested on: Aspergillus terreus; assay: as above; format: cell-based; conditions: 72 h, three days at 25° C., pH 5.7, read-out: Minimum Inhibitory Concentration
Protocol: as §5, §6, §7, §2, §8

[31] = tested on: human skin; conditions: prior art; cited from earlier work

## O=[N+]([O-])C1(Br)COCOC1 [Compound B, 5-bromo-5-nitro-1,3-dioxane, reference compound]
[1]
  irritation readings compared with the 2-methyl derivative: more severe
[2]
  MIC: 25 µg/mL (≈ 118 µM)
[3]
  MIC: < 10 µg/mL
[4]
  MIC: 25 µg/mL (≈ 118 µM)
[5]
  MIC: 25 µg/mL (≈ 118 µM)
[6]
  MIC: < 10 µg/mL
[7]
  MIC: 50 µg/mL (≈ 236 µM)
[8]
  MIC: 6.25 µg/mL (≈ 29.5 µM)
[9]
  MIC: 12.5 µg/mL (≈ 59 µM)
[10]
  MIC: 12.5 µg/mL (≈ 59 µM)
[11]
  MIC: 12.5 µg/mL (≈ 59 µM)
[12]
  MIC: 12.5 µg/mL (≈ 59 µM)
[13]
  MIC: 6.25 µg/mL (≈ 29.5 µM)
[14]
  MIC: 25 µg/mL (≈ 118 µM)
[15]
  sensitizing effect: marked sensitizing effect
  subjects evaluated as being sensitive on the challenge test: 11 subjects
[16]
  MIC: 25 µg/mL (≈ 118 µM)
[17]
  MIC: 25 µg/mL (≈ 118 µM)
[18]
  MIC: 25 µg/mL (≈ 118 µM)
[19]
  MIC: 25 µg/mL (≈ 118 µM)
[20]
  chemical stability towards alkali: does possess chemical stability towards alkali
[21]
  MIC: 50 µg/mL (≈ 236 µM)
[22]
  MIC: 100 µg/mL (≈ 472 µM)
[23]
  MIC: < 6.25 µg/mL
[24]
  MIC: 50 µg/mL (≈ 236 µM)
[25]
  MIC: 100 µg/mL (≈ 472 µM)
[26]
  MIC: 25 µg/mL (≈ 118 µM)
[27]
  MIC: 50 µg/mL (≈ 236 µM)
[28]
  MIC: < 6.25 µg/mL
[29]
  MIC: < 6.25 µg/mL
[30]
  MIC: 25 µg/mL (≈ 118 µM)
[31]
  irritation and sensitization in human subjects: induces irritation and sensitization in a significant number of human subjects

## CC(C)C1OCC(Br)([N+](=O)[O-])CO1 (stereo not shown) [Compound F, 5-bromo-2-isopropyl-5-nitro-1,3-dioxane]
[9]
  MIC: 25 µg/mL (≈ 98.4 µM)
[10]
  MIC: 25 µg/mL (≈ 98.4 µM)
[11]
  MIC: 6.25 µg/mL (≈ 24.6 µM)
[12]
  MIC: 12.5 µg/mL (≈ 49.2 µM)
[13]
  MIC: 12.5 µg/mL (≈ 49.2 µM)
[14]
  MIC: 12.5 µg/mL (≈ 49.2 µM)
[16]
  MIC: 50 µg/mL (≈ 197 µM)
[17]
  MIC: 25 µg/mL (≈ 98.4 µM)
[18]
  MIC: 25 µg/mL (≈ 98.4 µM)
[19]
  MIC: 25 µg/mL (≈ 98.4 µM)

## CCCC1OCC(Br)([N+](=O)[O-])CO1 (stereo not shown) [Compound E, 5-bromo-5-nitro-2-n-propyl-1,3-dioxane]
[9]
  MIC: 25 µg/mL (≈ 98.4 µM)
[10]
  MIC: 12.5 µg/mL (≈ 49.2 µM)
[11]
  MIC: 3.1 µg/mL (≈ 12.2 µM)
[12]
  MIC: 12.5 µg/mL (≈ 49.2 µM)
[13]
  MIC: 12.5 µg/mL (≈ 49.2 µM)
[14]
  MIC: 6.25 µg/mL (≈ 24.6 µM)
[16]
  MIC: 50 µg/mL (≈ 197 µM)
[17]
  MIC: 25 µg/mL (≈ 98.4 µM)
[18]
  MIC: 50 µg/mL (≈ 197 µM)
[19]
  MIC: 25 µg/mL (≈ 98.4 µM)
